Test results published in US20220211662A1, “METHOD OF TREATING CANCER BY ADMINISTERING AN EPIGALLOCATECHIN GALLATE COMBINED WITH TYROSINE KINASE INHIBITOR” (Yunnan Daye Dihong Biotechnology Co., Ltd., priority 2019, published 2022).

Tests used:
NCI-H1666 cells = assay: MTT cell viability, NCI-H1666 cells; assay type: cell-based, human; settings: 24 hours
Excerpt: Detection Principle: MTT method to detect cell viability
A container is best wrapped with aluminum foil paper.
Otherwise, it is difficult to reflect the real situation. […] A sample is prevented from being volatilized.

A431 transplanted tumor = assay: A431 heterotransplanted tumor model in nude mouse

## COc1cc2ncnc(Nc3ccc(F)c(Cl)c3)c2cc1OCCCN1CCOCC1 [Gefitinib]
NCI-H1666 cells; in the presence of EGF
  growth of NCI-H1666 cells: does not have a significant inhibitory effect
NCI-H1666 cells; without EGF
  survival rate / growth of NCI-H1666 cells: significant inhibitory effect
A431 transplanted tumor; A431 transplanted tumor, combined use compared with Gefitinib alone treatment group
  tumor volume growth: better inhibitory effect

## O=C(O[C@@H]1Cc2c(O)cc(O)cc2O[C@@H]1c1cc(O)c(O)c(O)c1)c1cc(O)c(O)c(O)c1 [EGCG, EPIGALLOCATECHIN GALLATE]
A431 transplanted tumor; compared with control group
  body weight of A431 tumor-bearing mouse: promote the weight increase
